We go through nine compounds from patent EP0652009A1, “Identification and use of protease inhibitors” (ELI LILLY AND COMPANY, priority 1993, dated 1995).

Read-outs that look alike come from different tables or passages of the source. Non-standard residues stand in square brackets, D forms with d. Residues, ends and D or L forms follow the SMILES beside them. Sta = CC(C)C[C@H](N)[C@@H](O)CC(=O)O; N(iPr)Gly = CC(C)NCC(=O)O

One assay concerns βAP production. As to the kind of experiment: Assay 4: βAP production inhibition (cellular assay, ELISA of conditioned media, normalised to MTT). The class given is cell-based, human; Chinese hamster. The settings on record: compound at 10 µg/mL; 293 751 SWE and CHO 751 SWE cells (table does not say which); βAP ELISA divided by MTT result, relative to drug-free control; mean and standard deviation of at least six replicate assays. The text has this:
The test system used to measure the βAP production inhibition activity is typically a cellular assay or an animal model. Preferably, the βAP production inhibition activity is obtained by direct measurement of βAP production in a cellular assay, as described in WO9410569, the full disclosure of which is incorporated herein by reference. This assay is exemplified in Assay 4, below.
Two cell lines (human kidney cell line 293 and Chinese hamster ovary cell line CHO) were stably transfected with the gene for APP-751 containing the double mutation Lys₆₅₁-Met₆₅₂ to Asn₆₅₁-Leu₆₅₂ (APP-751 numbering) commonly called the Swedish mutation using the method described in Citron et al., (1992) Nature 360:672-674. The transfected cell lines were designated as 293 751 SWE and CHO 751 SWE, and were plated in Corning 96 well plates at 2.5x10⁴ or 1x10⁴ cells per well respectively in Dulbecco's minimal essential media plus 10% fetal bovine serum. Following overnight incubation at 37°C in an incubator equilibrated with 10% carbon dioxide (CO₂), the media were removed and replaced with 200 µL per well of media containing an aspartyl protease inhibitor. After a two hour pretreatment period, the media were again removed and replaced with fresh media containing the aspartyl protease inhibitor and the cells were incubated for an additional two hours.
After treatment, plates were centrifuged in a Beckman GPR at 1200 rpm for five minutes at room temperature to pellet cellular debris from the conditioned media. From each well, 100µL of conditioned media were transferred into an ELISA plate precoated with antibody 266 against βAP-13-28 (Seubert et al., supra.) and stored at 4°C overnight. An ELISA assay employing labelled antibody 6C6 (against βAP-1-16) was run the next day to measure the amount of βAP produced.
Cytotoxic effects of the compounds were measured by a modification of the method of Hansen et al., (1989) J. Immun. Meth. 119:203-210. To the cells remaining in the tissue culture plate, was added 25 µL of a 3,(4,5-dimethylthiazol-2-yl)2,5-diphenyltetrazolium bromide (MTT) stock solution (5 mg/mL) to a final concentration of 1 mg/mL. Cells were incubated at 37°C for one hour, and cellular activity was stopped by the addition of an equal volume of MTT lysis buffer (20% w/v sodium dodecylsulfate in 50% DMF, pH 4.7). Complete extraction was achieved by overnight shaking at room temperature. The difference in the OD562nm and the OD650nm was measured in a Molecular Devices UVmax microplate reader as an indicator of the cellular viability.
The results of the βAP ELISA were fit to a standard curve and expressed as ng/mL βAP peptide. In order to normalize for cytotoxicity, these βAP results were divided by the MTT results and expressed as a percentage of the results from a drug-free control.
The compounds prepared above in Examples 9, 12, 13, 20-23, 23A, 24, 30, 41-43, 45, and 48 were assayed for βAP production inhibition activity in cells at 10 µg/mL using Assay 4. The results presented in Assay Table 4, below, are the mean and standard deviation of at least six replicate assays. Assay Table 4

Assay [1] addresses T1, Human liver cathepsin D (Homo sapiens, UniProt P07339). As to the kind of experiment: Assay 2: cathepsin D inhibition activity (non-cellular fluorometric assay). In kind it is biochemical. Also noted: Human liver cathepsin D (Athens Research and Technology, Athens, GA); purchased Athens Research and Technology, Athens, GA. Here is the method: (§1) A second non-cellular assay for determining in vitro aspartyl protease inhibitory activity utilizes a microtiter plate, where a suitable aspartyl protease, such as cathepsin D is added to each well together with controls. A suitable fluorometric substrate is added to each well. The resultant reaction mixture is allowed to react for a preselected time, e.g., 30 minutes. After enzyme activity is terminated, the substrate or its product may be determined fluorometrically and then the protease inhibition activity may be calculated based on the rates of substrate turnover. This assay is exemplified in Assay 2, below.
(§2) A fluorometric assay was adapted from the method disclosed by Murakami et al., (1981) Anal. Biochem. 110:232-239 for measuring renin activity. Human liver cathepsin D (Athens Research and Technology, Athens, GA) was diluted in assay buffer, 200mM NaOAc, pH 4.5, 150mM NaCl to 500 ng/mL and then 100 µL of this cathepsin D solution was added to each well of a 96 well plate with the exception of control wells which received just 100 µL of assay buffer. Compound stocks were prepared by dissolving an aspartyl protease inhibitor in DMSO for each concentration tested in the assay and then 5 µL of compound stock was added to each of the wells prepared above. Blank and enzyme control wells each received 5 µL of the DMSO vehicle.
(§3) Following a ten minute incubation at 25°C to allow enzyme/compound interaction, 5 µL of 500µM fluorometric substrate (Suc-Arg-Pro-Phe-His-Leu-Leu-Val-Try-AMC [SEQ ID NO:4], Bachem Biosciences, Philadelphia, PA) in DMSO was added per well to initiate the reaction. After incubation at 37°C for 30 minutes, cathepsin D activity was terminated by the addition of 100 µL per well of 400 mU/mL microsomal leucine aminopeptidase (EC 3.4.11.2, Sigma, St. Louis, MO) in 1M Tris-HCl, pH 8.0.
(§4) The plates were then analyzed in a fluorometer (CytoFluor 2350, Millipore, Bedford, MA) with an excitation wavelength of 360nm and an emission wavelength of 460nm, in order to check for background fluorescence due to test compounds. Following a two hour incubation at 37°C, to allow the aminopeptidase to release the fluorophore, 7-amido-4-methylcoumarin (AMC) from the products of cathepsin D cleavage, the plates were again analyzed in the fluorometer. In order to check for potential false positives, i.e., inhibitors of microsomal leucine aminopeptidase, residual aminopeptidase activity was monitored directly in each well by the addition of 20 µL/well of 2.5mM Leu-pNA (Bachem Biosciences, Philadelphia, PA) in 10% DMSO. Aminopeptidase activity was measured as an increase in the absorbance at 405nm in a UVmax microplate reader (Molecular Devices, Menlo Park, CA).
(§5) The compounds prepared in Examples 9, 12, 13, 20-23, 23A, 24, 30, 41-43, 45, and 48 were assayed at 10 µg/mL for cathepsin D inhibition activity using Assay 2. Cathepsin D activity was linear under these conditions and the results are expressed as percent inhibition of the control activity in Assay Table 2, below. All results presented are the mean and standard deviation of at least four replicate assays. Assay Table 2
Target sequence in this assay (P07339 169-412 limits assumed): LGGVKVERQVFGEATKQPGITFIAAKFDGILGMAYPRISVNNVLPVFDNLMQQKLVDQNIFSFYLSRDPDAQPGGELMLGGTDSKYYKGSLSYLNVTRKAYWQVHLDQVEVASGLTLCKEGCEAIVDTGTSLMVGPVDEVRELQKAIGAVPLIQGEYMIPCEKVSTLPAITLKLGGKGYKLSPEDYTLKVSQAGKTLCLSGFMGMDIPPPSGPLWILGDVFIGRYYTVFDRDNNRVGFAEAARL
Target sequence in this assay (P07339 65-162 limits assumed): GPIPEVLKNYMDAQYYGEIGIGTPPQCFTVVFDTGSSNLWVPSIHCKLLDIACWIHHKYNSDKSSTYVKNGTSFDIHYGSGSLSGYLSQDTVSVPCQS

The target of assay [2] is T1, Human liver cathepsin D. Described as above. In kind it is biochemical. Also noted: Human liver cathepsin D (Athens Research and Technology, Athens, GA); purchased Athens Research and Technology, Athens, GA; host or cells: human liver (by the product's printed name). As for the experimental part:
as §1, §2, §3, §4, §5
Target sequence in this assay (P07339 65-412): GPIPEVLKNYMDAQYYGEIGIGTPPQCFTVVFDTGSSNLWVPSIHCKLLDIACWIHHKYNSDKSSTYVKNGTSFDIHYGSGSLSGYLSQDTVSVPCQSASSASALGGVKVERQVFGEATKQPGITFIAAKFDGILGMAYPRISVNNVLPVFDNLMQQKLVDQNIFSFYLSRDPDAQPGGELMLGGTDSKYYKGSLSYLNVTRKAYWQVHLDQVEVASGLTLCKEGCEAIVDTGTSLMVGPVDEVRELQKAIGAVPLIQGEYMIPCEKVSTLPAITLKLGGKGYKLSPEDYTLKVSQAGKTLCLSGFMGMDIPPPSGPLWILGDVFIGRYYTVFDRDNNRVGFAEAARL

Setting [3] is: compound at 10 µg/mL, percent inhibition of control activity, mean and standard deviation of at least four replicate assays.

Take `Cc1ccc(C(=O)C2NCCc3ccccc32)cc1C(=O)N[C@@H](Cc1ccccc1)[C@H](O)CN1C[C@H]2CCCC[C@H]2C[C@H]1C(=O)NC(C)(C)C` (relative stereo) [Example 30, [3S-(3R*,4aR*,8aR*,2'S*,3'R*)]-2-[2'-Hydroxy-3'-phenylmethyl-4'-aza-5'-oxo-5'-(3''-[1''',2''',3''',4'''-tetrahydroisoquinolin-1'''-ylcarbonyl]-6''-methyl)phenyl]pentyl-decahydroisoquinoline-3-N-t-butylcarboxamide]: the “βAP Production Inhibition” value in the assay with βAP production is given as 69.2 ± 2.2%. Also, the “Cathepsin D Inhibition” value at Human liver cathepsin D [1] (setting [3]) was found to be 69.2 ± 3.5%.
The term inhibition denotes the drop in the measured response relative to a control, in per cent. Regarding `Cc1cccc2ccc(C(=O)N[C@@H](CC(N)=O)C(=O)N[C@@H](Cc3ccccc3)[C@H](O)Cc3ccccc3C(=O)NC(C)(C)C)nc12` [Example 9, [1S-(1R*,4R*,5S*)]-N-(1-(2-Amino-2-oxoethyl)-2-oxo-3-aza-4-phenylmethyl-5-hydroxy-6-(2-(1-t-butylamino-1-oxomethyl)phenyl)hexyl)-8-methylquinolin-2-yl carboxamide], the figures for the inhibition at 10 µg/mL in the assay with βAP production and at Human liver cathepsin D [1] were 44.4 ± 7.7% and 44.4 ± 1.9%, respectively.
Turning to `CC(C)C(NC(=O)C(Cc1cccc2ccccc12)NC(=O)OC(C)(C)C)C(=O)NC(Cc1ccccc1)C(O)Cc1ccccc1C(=O)NC(C)(C)C` (stereo not drawn) [Example 23, [2R-(2R*,3S*,6S*,9S*)]-N-t-Butyl-2-[2-hydroxy-3-phenylmethyl-4,7-diaza-5,8-dioxo-6-(1-methylethyl)-9-N(t-butoxycarbonyl)amino-10-naphth-1-yl]decyl benzamide], the inhibition at 10 µg/mL in the assay on βAP production was determined as 96.3 ± 2.8%; against Human liver cathepsin D [1] (setting [3]), 96.3 ± 0.9%.
Consider `CC(C)C(NC(=O)C(Cc1cccc2ccccc12)NC(=O)OC(C)(C)C)C(=O)NC(Cc1ccccc1)C(O)Cc1ccccc1C(=O)NC(C)(C)C` (stereo not drawn) [Example 24, [2R-(2R*,3S*,6S*,9R*)]-N-t-Butyl-2-[2-hydroxy-3-phenylmethyl-4,7-diaza-5,8-dioxo-6-(1-methylethyl)-9-N(t-butoxycarbonyl)amino-10-naphth-1-yl]decyl benzamide], for which the “βAP Production Inhibition” value in the assay on βAP production came to 92.7 ± 1.4%. In addition, the “Cathepsin D Inhibition” value on Human liver cathepsin D [1] (setting [3]) came to 92.7 ± 0.5%.
For the compound `CC(=O)NCC(=O)N[C@H](C(=O)N[C@H](C(=O)N[C@@H](CC(C)C)[C@@H](O)CC(=O)N[C@@H](C)C(=O)N[C@H](C(=O)O)[C@@H](C)O)C(C)C)C(C)C` [Example 41, CH3C(O)-Gly-Val-Val-Sta-Ala-Thr-OH] (Ac-GVV[Sta]AT-OH), in the assay on βAP production, the “βAP Production Inhibition” value was -6.2 ± 6.2%. On Human liver cathepsin D [2], this compound came in with an inhibition at 10 µg/mL of 98.3 ± 0.1%.
`CC(C)C[C@H](NC(=O)[C@@H](NC(=O)[C@@H](NC(=O)CNC(C)C)C(C)C)C(C)C)[C@@H](O)CC(=O)N[C@@H](C)C(=O)N[C@H](C(=O)O)[C@@H](C)O` [Example 42, (CH3)2CH-Gly-Val-Val-Sta-Ala-Thr-OH] (H-[N(iPr)Gly]VV[Sta]AT-OH): the “βAP Production Inhibition” value in the assay with βAP production was determined as 13.1 ± 7.5%. The compound further had an inhibition at 10 µg/mL on Human liver cathepsin D [2] of 89.5 ± 1.3%.
For the compound `CC(C)C[C@H](NC(=O)[C@@H](NC(=O)[C@@H](NC(=O)CN)C(C)C)C(C)C)[C@@H](O)CC(=O)N[C@@H](C)C(=O)N[C@H](C(=O)O)[C@@H](C)O` [Example 43, Gly-Val-Val-Sta-Ala-Thr-OH] (H-GVV[Sta]AT-OH), the “βAP Production Inhibition” value in the assay on βAP production was determined as 16.2 ± 8.5%. This compound gave an inhibition at 10 µg/mL at Human liver cathepsin D [2] of 87.9 ± 2.4%.
Take `CC(C)C[C@H](NC(=O)[C@@H](NC(=O)CN)C(C)C)[C@@H](O)CC(=O)N[C@@H](C)C(=O)N[C@H](C(=O)O)[C@@H](C)O` [Example 45, Gly-Val-Sta-Ala-Thr-OH] (H-GV[Sta]AT-OH): the “βAP Production Inhibition” value in the assay on βAP production is on record as 3.3 ± 1.1%. Also, the inhibition at 10 µg/mL at Human liver cathepsin D [2] is 30.6 ± 4.8%.
Consider `CC[C@H](C)[C@H](NC(=O)C[C@H](O)[C@H](CC(C)C)NC(=O)[C@@H](NC(=O)CNC(C)C)C(C)C)C(=O)N[C@@H](C)C(=O)N[C@H](C(=O)O)[C@@H](C)O` [Example 48, (CH3)2CH-Gly-Val-Sta-Ile-Ala-Thr-OH] (H-[N(iPr)Gly]V[Sta]IAT-OH), for which, in the assay with βAP production, the “βAP Production Inhibition” value was determined as 1.6 ± 19.8%. At Human liver cathepsin D [2], this compound displayed an inhibition at 10 µg/mL of 79.9 ± 2.7%.
